Measurements taken from US20230279018A1, “AP[…] INHIBITION” (priority 2020, published 2023).

How the values were obtained:
PfcFRS = target: T1, PfcFRS (Plasmodium falciparum, UniProt Q8I246); assay: Surface Plasmon Resonance binding, PfcFRS; conditions: SPR, 25° C., PBS pH 7.4, 5% DMSO; read-out: cFRS Kd, Pf
T1 sequence (Q8I246 1-575): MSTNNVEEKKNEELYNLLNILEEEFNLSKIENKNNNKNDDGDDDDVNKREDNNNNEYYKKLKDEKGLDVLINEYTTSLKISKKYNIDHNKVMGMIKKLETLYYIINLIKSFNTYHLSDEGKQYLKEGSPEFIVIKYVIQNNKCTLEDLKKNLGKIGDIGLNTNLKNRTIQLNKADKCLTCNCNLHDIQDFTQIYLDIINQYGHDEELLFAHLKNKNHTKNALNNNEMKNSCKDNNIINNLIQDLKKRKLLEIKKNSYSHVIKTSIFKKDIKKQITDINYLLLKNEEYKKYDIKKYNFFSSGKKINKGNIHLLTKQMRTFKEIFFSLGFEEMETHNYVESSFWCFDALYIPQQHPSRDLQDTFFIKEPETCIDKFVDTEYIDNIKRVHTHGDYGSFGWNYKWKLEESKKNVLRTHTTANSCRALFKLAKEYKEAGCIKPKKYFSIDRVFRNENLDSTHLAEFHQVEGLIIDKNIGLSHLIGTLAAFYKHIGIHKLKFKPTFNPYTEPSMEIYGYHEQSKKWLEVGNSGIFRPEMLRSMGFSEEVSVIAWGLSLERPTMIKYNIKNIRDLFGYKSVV
T1 sequence (Q8IIW2 1-623 partner): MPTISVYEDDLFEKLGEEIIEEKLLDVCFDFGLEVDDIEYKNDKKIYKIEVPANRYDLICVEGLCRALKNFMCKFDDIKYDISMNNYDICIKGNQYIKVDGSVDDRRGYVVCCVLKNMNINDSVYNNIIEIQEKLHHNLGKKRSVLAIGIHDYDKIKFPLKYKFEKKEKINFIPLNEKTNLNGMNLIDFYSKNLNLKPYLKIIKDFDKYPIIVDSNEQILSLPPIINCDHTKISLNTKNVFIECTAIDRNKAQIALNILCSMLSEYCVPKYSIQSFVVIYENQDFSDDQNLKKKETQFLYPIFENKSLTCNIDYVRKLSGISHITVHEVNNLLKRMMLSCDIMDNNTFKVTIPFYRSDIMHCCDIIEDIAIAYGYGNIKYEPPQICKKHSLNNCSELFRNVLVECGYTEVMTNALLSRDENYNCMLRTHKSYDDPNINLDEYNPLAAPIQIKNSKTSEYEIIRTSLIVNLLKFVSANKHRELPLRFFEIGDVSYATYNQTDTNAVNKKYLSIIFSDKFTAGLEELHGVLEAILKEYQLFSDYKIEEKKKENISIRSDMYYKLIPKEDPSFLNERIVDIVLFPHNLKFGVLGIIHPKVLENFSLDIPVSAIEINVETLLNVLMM
Procedure: (§1) Surface Plasmon Resonance experiments to evaluate the binding of Compound 1 to proteins were carried out on a Biacore T200 instrument (GE Healthcare) at 25° C. The binding experiments were performed in buffer 10 mM phosphate buffered saline (PBS), pH 7.4, containing 5% dimethyl sulfoxide (DMSO). The flow system was primed with the running buffer before the initiation of the experiment. Both PfcFRS and HscFRS were immobilized to Sensor Chip CM5 by standard amine coupling chemistry using N-hydroxysuccinimide (NHS) and ethyl(dimethylaminopropyl) carbodiimide (EDC), to an immobilization level of approximately 1500 RU. The binding experiments were carried out in a single cycle kinetics mode. Compound 1 was serially diluted in running buffer, and injected at a flow rate of 60 μl min^−1 across both surface for 60 s and dissociation were set up for 120 s. The analysis was done using Biaevaluation (GE Healthcare) and GraphPad Prism 7 software (GraphPad Software Inc, USA). […] The equilibrium dissociation constants (Kd) were determined by plotting the measured response (Req) as a function of the analyte concentration. […] Measured sensograms illustrating the binding of various concentrations of Compound 1 to the protein are shown in FIG. 3B (PfcFRS) and 3C (HscFRS) including both the measured data and the 1:1 binding model fit.

HscFRS = target: T2, HscFRS (Homo sapiens, UniProt Q9Y285); assay: Surface Plasmon Resonance binding, HscFRS; conditions: SPR, 25° C., PBS pH 7.4, 5% DMSO; read-out: cFRS Kd, Hs
T2 sequence (Q9Y285 1-508): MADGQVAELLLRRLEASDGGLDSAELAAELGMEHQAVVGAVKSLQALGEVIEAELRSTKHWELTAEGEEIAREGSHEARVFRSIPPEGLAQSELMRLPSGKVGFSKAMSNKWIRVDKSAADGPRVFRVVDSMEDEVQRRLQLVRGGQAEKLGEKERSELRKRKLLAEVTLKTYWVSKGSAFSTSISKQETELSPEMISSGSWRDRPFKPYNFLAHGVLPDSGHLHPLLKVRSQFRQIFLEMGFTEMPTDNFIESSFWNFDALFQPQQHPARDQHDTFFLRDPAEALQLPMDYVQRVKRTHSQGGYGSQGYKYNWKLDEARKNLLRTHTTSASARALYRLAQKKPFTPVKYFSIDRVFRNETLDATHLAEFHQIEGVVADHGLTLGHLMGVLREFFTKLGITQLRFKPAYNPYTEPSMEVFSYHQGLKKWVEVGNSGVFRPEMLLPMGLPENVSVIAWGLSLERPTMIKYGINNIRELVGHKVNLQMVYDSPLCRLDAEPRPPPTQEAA
T2 sequence (Q9NSD9 1-589 partner): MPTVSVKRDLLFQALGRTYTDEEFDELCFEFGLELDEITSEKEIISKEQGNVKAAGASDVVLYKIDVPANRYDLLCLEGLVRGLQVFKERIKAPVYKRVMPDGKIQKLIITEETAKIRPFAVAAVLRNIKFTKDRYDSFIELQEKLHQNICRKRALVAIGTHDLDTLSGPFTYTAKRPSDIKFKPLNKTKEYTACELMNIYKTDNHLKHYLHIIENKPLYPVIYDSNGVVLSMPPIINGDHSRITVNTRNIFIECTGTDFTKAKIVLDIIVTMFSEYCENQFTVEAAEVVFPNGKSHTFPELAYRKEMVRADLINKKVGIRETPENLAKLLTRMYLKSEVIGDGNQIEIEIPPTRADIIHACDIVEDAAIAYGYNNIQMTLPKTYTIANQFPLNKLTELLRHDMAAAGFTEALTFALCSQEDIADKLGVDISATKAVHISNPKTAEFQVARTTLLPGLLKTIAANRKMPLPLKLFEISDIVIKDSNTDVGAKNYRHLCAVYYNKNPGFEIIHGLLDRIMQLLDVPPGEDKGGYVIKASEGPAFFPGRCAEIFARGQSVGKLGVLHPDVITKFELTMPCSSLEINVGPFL
Procedure: as §1

## COC[C@@H]1[C@H](c2ccc(C#Cc3ccccc3)cc2)[C@@H]2CN(C(=O)Nc3ccc(OC4CC4)cc3)C[C@@H](O)[C@@H](O)CN12 [Compound 1, (3S,4R,8R,9R,10S)—N-(4-cyclopropoxyphenyl)-3,4-dihydroxy-10-(methoxymethyl)-9-(4-(phenylethynyl)phenyl)-1,6-diazabicyclo[6.2.0]decane-6-carboxamide]
PfcFRS
  Kd: 4 nM
HscFRS
  Kd: 16 µM
